According to patent publication US8299119B2, “Biologically active compounds” (Bio-Active Export Pty. Ltd., priority 2005, dated 2012):
Converted amounts (≈) assume the structure as drawn.

Legend:
[1] = test system: prostaglandin E2 production in 3T3 Swiss Albino fibroblast cells; assay: Inhibition of prostaglandin E2 production in calcium ionophore stimulated cells; type: cell-based; set-up: Anti-inflammatory capacity, Average (PGE2 assay): unit: %; settings: for dose response in PGE2 assay: over the concentration range tested; for IC50: range of concentrations, read-out: IC 50 values, Average (PGE2 assay)
Experimental: Samples were tested for their ability to inhibit prostaglandin E2 production in cells stimulated by a calcium ionophore, compared to stimulated cells not exposed to any sample. Inhibition was tested over a range of 3 concentrations, although a dose response was not observed for most samples. This is probably because the samples are very efficient at inhibiting PGE2 production and the range of concentrations used was too narrow. The data presented are the maximal inhibition of PGE2 observed for a given sample.
3T3 Swiss Albino fibroblast cell suspension (Phenol-red free DMEM with 10% FBS and 2 mM L-glutamine) was plated out into 96-well tissue culture plates (1×10^5 cells/mL, 100 μL/well). The cells were cultured overnight at 37° C., 5% CO2. […] Cells+samples were incubated (37° C., 3 hours), before the addition of calcium ionophore A23187. Following 20 min incubation, the plate was centrifuged (1000 g, 3 min) and the supernatants were removed. Included on the plate was a positive control (aspirin; 100 μM), and DMSO control, both with and without calcium ionophore A23187.
The supernatants were diluted by serial dilution (1:500) in enzyme immunoassay (EIA) buffer, and assayed for PGE2 using the Prostaglandin E2 EIA Monoclonal Kit (Cayman Chemical; Cat No. 514010), according to manufacturers' instructions.

[2] = ORAC (oxygen radical absorbance capacity) assay; settings: for Antioxidant capacity (ORAC): pure compounds, Table 13; for ORAC value: Centipeda fractions, Table 7
Experimental: The antioxidant capacity of the Centipeda fractions was measured using the ORAC procedure (Oxygen Radical Absorbance Capacity). A water soluble analogue of vitamin E, Trolox, was used as a reference standard, and the ORAC value is expressed as μmol of trolox equivalence (TE) per gram of sample extract.
The ORAC assay employed in this study measured the antioxidant scavenging activity in the test samples, against peroxyl radicals induced by 2,2′-azobis(2-amidinopropane)dihydrochloride (AAPH) at 37° C. Fluorescein was used as the fluorescent probe. The method used is based on that of Huang et al.^1, Huang et al.^2 and Prior et al.^3 ^1 Huang et al., 2002. Journal of Agricultural and Food Chemistry 50(16): 1815-1821.^2 Huang et al., 2002. Journal of Agricultural and Food Chemistry 50(16): 4437-4444.^3 Prior et al., 2003. Journal of Agricultural and Food Chemistry 51(11): 3273-3279.
All samples were assayed using the hydrophilic ORAC procedure in serial dilution×4 with acetone:water:acetic acid; 70:29.5:0.5 (A:W:A,) and in quadruplicate, starting with the concentration relevant to the sample, depending on the approximated antioxidant capacity from an initial screen.
Trolox, a water soluble analogue of vitamin E, was used as a reference standard. A trolox standard curve was established from trolox standards prepared at 100, 50, 25, and 12.5 μM in A:W:A.
Briefly, 10 μL fluorescein (6.0×10^−7 M), 20 μL samples/standards/control/blank (A:W:A) and 170 μL […] (20 mM) were added per well. Immediately after loading, the plate was transferred to the plate reader preset to 37° C., and the fluorescence was measured 35 times at one minute intervals. The fluorescence readings were referenced to solvent blank wells. The final ORAC values were calculated using a regression equation between the Trolox concentration and the net area under the fluorescein decay curve, and where possible were expressed as Trolox equivalents (TE) as micromoles per gram of sample.

Row | Compound | Anti-inflammatory capacity, Average (PGE2 assay) ([1]; 5.0 μg/mL) | dose response in PGE2 assay [1] | Antioxidant capacity (ORAC) [2] | IC50 ([1]; Fibroblast) | inhibition at 125 µg/mL ([1]; Fibroblast, sample 0.125 mg/mL, maximal inhibition observed, read-out: % inhibition of PGE2 production ± SEM) | ORAC value [2] | Anti-inflammatory capacity, Average (PGE2 assay) ([1]; 100 μM, positive control) | inhibition at 10 µM ([1]; Fibroblast, 0.01 mM, positive control, read-out: % inhibition of PGE2 production ± SEM) | inhibition at 62.5 µg/mL ([1]; Fibroblast, sample 0.0625 mg/mL, maximal inhibition observed, read-out: % inhibition of PGE2 production ± SEM)
1 | COC(=O)/C(O)=C/C(OC(=O)/C=C/c1ccc(O)c(O)c1)C(OC(=O)/C=C/c1ccc(O)c(O)c1)C(O)C(=O)OC (stereo not drawn) [Compound 10, 4ξ,5ξ-Di-O-caffeoyl-2,6ξ-dihydroxyhept-2-en-1,7-dioic acid-dimethyl ester] | 73.95 | did not exhibit a standard dose response type curve | 3957 TE/g extract |  |  |  |  |  | 
2 | COC(=O)C(O)C(OC(=O)/C=C/c1ccc(O)c(O)c1)C(/C=C(\O)C(=O)O)OC(=O)/C=C/c1ccc(O)c(O)c1 (stereo not drawn) [Compound 8, 4ξ,5ξ-Di-O-caffeoyl-2,6ξ-dihydroxyhept-2-en-1,7-dioic acid-7-methyl ester] | 73.50 |  | 8122 TE/g extract | 4.73 µg/mL (≈ 8.44 µM) |  |  |  |  | 
3 | COc1c(O)cc2oc(-c3ccc(O)cc3O)c(OC3OC(CO)C(O)C(O)C3O)c(=O)c2c1O (single isomer, unassigned) [Compound 1, 2′,4′,5,7-tetrahydroxy-6-methoxyflavone-3-O-β-glucopyranoside] | 52.2 |  | 12178 TE/g extract | 1.47 µg/mL (≈ 2.97 µM) | 67.8 ± 2.86% | 3871.9 μmol TE/g of extract |  |  | 
4 | CC(=O)Oc1ccccc1C(=O)O [Aspirin, aspirin, reference compound] |  |  |  |  |  |  | 54.6 | 57.4 ± 14.4% | 
5 | O=C(/C=C/c1ccc(O)c(O)c1)OC(/C=C(\O)C(=O)O)C(OC(=O)/C=C/c1ccc(O)c(O)c1)C(O)C(=O)O (single isomer, unassigned) [Compound 2, 4ξ,5ξ-Di-O-caffeoyl-2,6ξ-dihydroxyhept-2-en-1,7-dioic acid] | 67.38 |  | 13781 TE/g extract | 2.48 µg/mL (≈ 4.54 µM) |  | 3415.1 μmol TE/g of extract |  |  | 74.5 ± 8.06%
6 | COC(=O)/C(O)=C/C(OC(=O)/C=C/c1ccc(O)c(O)c1)C(OC(=O)/C=C/c1ccc(O)c(O)c1)C(O)C(=O)O (stereo not drawn) [Compound 9, 4ξ,5ξ-Di-O-caffeoyl-2,6ξ-dihydroxyhept-2-en-1,7-dioic acid-1-methyl ester] | 45.00 | did not exhibit a standard dose response type curve | 6822 TE/g extract |  |  |  |  |  | 
